According to patent US6965039B2, “7-carboxy-flavone derivatives preparation method and therapeutic use” (Negma-Lerads, priority 2000, dated 2005):

Key:
[1] = system: IL-1 (interleukin 1); assay: Inhibition of IL-1 secretion on PBMC cells (method of Schindler); type: cell-based; settings: tests in duplicate
Description: (§1) The inhibiting activity on the secretion of inflammatory cytokines of the compounds of the invention was tested in vitro, more particularly on the secretion of IL-1 (interleukin 1) and on IL-6 and TNFα (tumor necrosis factor), which are the main cytokines related to the arthrotic process.
(§2) The tests on these three cytokines were carried out on PBMC (Peripheral Blood Mononuclear Cells) cells according to the method of Schindler (R. Schindler et al., Blood, (1990) 75, 40-47) using cycloheximide (IL-1) and dexamethasone (IL-6, TNFα) as reference products.
(§3) The results of the tests carried out with the flavone derivatives of the invention described in examples 1, 4 and 6 above [sic] are combined in the following table. The tests were carried out in duplicate, at concentrations of 1 and 10 μM. The results are expressed as percentage of inhibition.

[2] = system: IL-6; assay: Inhibition of IL-6 secretion on PBMC cells (method of Schindler); type: cell-based; settings: tests in duplicate
Description: as §1, §2, §3

[3] = system: TNFα (tumor necrosis factor); assay: Inhibition of TNFα secretion on PBMC cells (method of Schindler); type: cell-based; settings: tests in duplicate, read-out: TNFα, percentage of inhibition
Description: as §1, §2, §3

[4] = system: prostaglandins (PGE2); assay: Secretion of prostaglandins (PGE2) on differentiated HL-60 cells (method of Honda); type: cell-based
Description: The effect of the derivatives of the invention on the secretion of prostaglandins (PGE2), which increase articular inflammation, and of leukotriene (LTB4) was measured on differentiated HL-60 cells using the methods of Honda (M. Honda et al., Diabetes Res., (1990) 14, 43-46) and of Bennett (C. F. Bennett et al., Biochem. J., (1993) 289, 33-39), respectively, using indomethacin and nordihydroguaiaretic acid as reference products.

[5] = read-out: IL1β, percentage of inhibition
[6] = read-out: IL6, percentage of inhibition

| melting point | Structure (SMILES) | inhibition at 1 µM ([1]; 1 μM, read-out: IL1β, percentage of inhibition) [%] | inhibition at 10 µM [1, 5] [%] | inhibition at 1 µM ([2]; 1 μM, read-out: IL6, percentage of inhibition) [%] | inhibition at 10 µM [2, 6] [%] | inhibition at 1 µM ([3]; 1 μM) [%] | inhibition at 10 µM ([3]; 10 μM) [%] | IL1β, percentage of inhibition ([1]; 1 μM) [%] | IL6, percentage of inhibition ([2]; 1 μM) [%] | effect on the secretion of prostaglandins [4] |
| --- | --- | --- | --- | --- | --- | --- | --- | --- | --- | --- |
| 270 °C (dec.) | O=C(O)c1cc(O)c2c(=O)cc(-c3ccccc3)oc2c1 [Example 1, 5-Hydroxy-2-phenyl-4-oxo-4H-chromene-7-carboxylic acid] | 15 | 96 | 50 | 98 | 61 | 32 |  |  |  |
|  | O=C(O)c1cc(O)c2c(=O)cc(-c3ccc(C(F)(F)F)cc3)oc2c1 [Example 6, 5-Hydroxy-2-(4′-trifluoromethylphenyl)-4-oxo-4H-chromene-7-carboxylic acid] |  | 72 |  | 100 |  |  |  |  |  |
|  | COc1ccc(-c2cc(=O)c3c(O)cc(C(=O)O)cc3o2)cc1 [Example 4, 5-Hydroxy-0.2-(4′-methoxyphenyl)-4-oxo-4H-chromene-7-carboxylic acid] |  |  |  |  |  |  | <10 | 56 | stimulating the secretion of prostaglandins |
